From paper PMC6269587 (Iranian Journal of Pharmaceutical Research : IJPR, 2018)

Tests used:
[1] = DPPH radical scavenging activity (antioxidant activity); conditions: DPPH method, 30 min, 517 nm, triplicate
Procedure: The DPPH method is based on the free radical scavenging activity ([17]). briefly, 2 mL of DPPH solution in methanol (4×10^-5 g/mL) was prepared and added to 1 mL of different concentrations of sample solution in methanol (0.1, 0.5 and 1.0 mg/mL). The mixture was kept in the dark for 30 min at room temperature. The antioxidant activity was measured by Shimadzu, UV/VIS model 160A spectrophotometer at 517 nm.
All the measurements were done in triplicate. The IC50 values were calculated as means ± SD and butylated hydroxytoluene (BHT) was used as positive control.

[2] = target: T1, Acetylcholinesterase (AChE) (Homo sapiens, UniProt P22303); assay: biochemical; conditions: for AChE Inhibitory IC50 ± SD: Ellman's method, 412 nm, 25 °C, pH 8.0
T1 construct: purchased Sigma (Germany)
T1 sequence (P22303 32-614, species assumed): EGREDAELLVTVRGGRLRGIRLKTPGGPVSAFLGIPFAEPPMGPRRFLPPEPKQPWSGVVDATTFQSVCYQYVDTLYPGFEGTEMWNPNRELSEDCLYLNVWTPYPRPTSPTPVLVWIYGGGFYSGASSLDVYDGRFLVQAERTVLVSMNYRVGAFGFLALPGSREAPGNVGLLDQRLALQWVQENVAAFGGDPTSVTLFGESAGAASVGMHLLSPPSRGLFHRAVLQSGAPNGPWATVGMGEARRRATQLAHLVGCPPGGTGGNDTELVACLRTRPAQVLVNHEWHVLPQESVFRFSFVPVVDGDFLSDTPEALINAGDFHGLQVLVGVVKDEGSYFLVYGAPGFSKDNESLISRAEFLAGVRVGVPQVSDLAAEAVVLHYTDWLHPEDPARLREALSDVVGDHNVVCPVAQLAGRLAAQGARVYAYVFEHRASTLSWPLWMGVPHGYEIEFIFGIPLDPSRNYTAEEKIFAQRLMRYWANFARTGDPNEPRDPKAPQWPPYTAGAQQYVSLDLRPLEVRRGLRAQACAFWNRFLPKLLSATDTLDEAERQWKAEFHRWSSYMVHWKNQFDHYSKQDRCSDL
Procedure: AChE inhibitory effect of petroleum ether, chloroform, ethyl acetate, and methanol fractions were carried out by the Ellman′s method ([16]).

brain cells = conditions: mice; cited from earlier work
[3] = test system: triple transgenic mice of Alzheimer's disease model; conditions: cited from earlier work

Row | SMILES | Antioxidant Activity IC50 ± SD [1] [µg/mL] | IC50 [2] [µM] | neuroprotective effect (brain cells) | effect on performance, emotional and cognitive behavior [3] | AChE Inhibitory IC50 ± SD [2]
1 | O=c1c(O[C@@H]2O[C@H](CO)[C@@H](O)[C@H](O)[C@H]2O)c(-c2ccc(O)cc2)oc2cc(O)cc(O)c12 [Astragalin, astragalin] | 26.92 ± 3.5 | 162 |  |  | 
2 | Cc1cc(C(C)(C)C)c(O)c(C(C)(C)C)c1 [BHT, butylated hydroxytoluene, reference compound] | 19.50 ± 2.8 |  |  |  | 
3 | O=C(O)/C=C/c1ccc(O)c(O)c1 [Caffeic acid] | 11.41 ± 6.0 | 66.9 |  |  | 
4 | O=c1c(O)c(-c2ccc(O)c(O)c2)oc2cc(O)cc(O)c12 [Quercetin, quercetin] | 10.24 ± 1.3 | 220 | strong protective effects of this compound on the brain cells | protective effects on performance, emotional and cognitive behavior have been confirmed | 
5 | O=C(O)c1ccccc1O [Salicylic acid] | 114.57 ± 1.0 |  |  |  | -
6 | O=C(O)C=Cc1ccc(O)cc1 [p-Coumaric acid] | 110.33 ± 1.2 |  |  |  | -
